Data taken from ChEMBL document CHEMBL3232846, “Synthesis and discovery of highly functionalized mono- and bis-spiro-pyrrolidines as potent cholinesterase enzyme inhibitors” (Bioorg Med Chem Lett, 2014).

Experiments:
[1] = biological target: Cholinesterase (Equus caballus, UniProt P81908); assay: Inhibition of equine serum BChE using S-butyrylthiocholine chloride as substrate preincubated for 15 mins by spectrophotometer analysis
[2] = biological target: Acetylcholinesterase (Electrophorus electricus, UniProt O42275); assay: Inhibition of electric eel AChE using acetylthiocholine iodide as substrate preincubated for 15 mins by spectrophotometer analysis
[3] = Selectivity ratio of IC50 for equine serum BChE to IC50 for electric eel AChE
[4] = Selectivity ratio of IC50 for electric eel AChE to IC50 for equine serum BChE

Sequence of Cholinesterase (P81908 whole entry): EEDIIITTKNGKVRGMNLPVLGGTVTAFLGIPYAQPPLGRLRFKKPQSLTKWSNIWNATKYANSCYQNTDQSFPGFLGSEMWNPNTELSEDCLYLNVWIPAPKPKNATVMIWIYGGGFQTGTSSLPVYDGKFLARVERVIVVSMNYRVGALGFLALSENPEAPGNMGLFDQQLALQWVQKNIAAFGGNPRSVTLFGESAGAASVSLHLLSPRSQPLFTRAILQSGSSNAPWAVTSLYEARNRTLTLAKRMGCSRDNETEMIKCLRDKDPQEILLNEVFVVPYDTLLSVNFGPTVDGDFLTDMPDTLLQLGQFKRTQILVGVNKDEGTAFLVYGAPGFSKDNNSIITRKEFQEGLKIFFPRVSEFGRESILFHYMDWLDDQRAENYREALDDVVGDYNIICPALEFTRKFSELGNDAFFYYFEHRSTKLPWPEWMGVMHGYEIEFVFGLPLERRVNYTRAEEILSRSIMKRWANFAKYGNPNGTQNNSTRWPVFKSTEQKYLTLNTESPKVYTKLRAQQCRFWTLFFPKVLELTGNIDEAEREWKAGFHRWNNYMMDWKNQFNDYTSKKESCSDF
Sequence of Acetylcholinesterase (O42275 whole entry): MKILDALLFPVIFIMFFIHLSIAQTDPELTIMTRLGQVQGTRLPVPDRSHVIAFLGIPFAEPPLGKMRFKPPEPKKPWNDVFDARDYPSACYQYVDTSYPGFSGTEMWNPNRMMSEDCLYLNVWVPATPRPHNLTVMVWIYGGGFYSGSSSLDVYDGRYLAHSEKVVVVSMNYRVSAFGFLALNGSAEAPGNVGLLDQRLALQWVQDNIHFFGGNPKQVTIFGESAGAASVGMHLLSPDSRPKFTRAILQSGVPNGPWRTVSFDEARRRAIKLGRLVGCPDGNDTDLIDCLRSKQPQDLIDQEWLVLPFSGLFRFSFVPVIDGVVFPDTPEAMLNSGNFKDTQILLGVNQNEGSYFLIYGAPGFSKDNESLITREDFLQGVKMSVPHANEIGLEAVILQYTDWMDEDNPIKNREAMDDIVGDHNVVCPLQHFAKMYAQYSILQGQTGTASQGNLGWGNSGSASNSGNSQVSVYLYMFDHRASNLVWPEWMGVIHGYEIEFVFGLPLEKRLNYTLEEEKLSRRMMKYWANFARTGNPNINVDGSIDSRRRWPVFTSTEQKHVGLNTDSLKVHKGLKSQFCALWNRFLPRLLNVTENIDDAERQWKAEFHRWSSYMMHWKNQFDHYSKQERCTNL

Row | SMILES | IC50 [1] [µM] | IC50 [2] [µM] | Ratio IC50 [3] | Ratio IC50 [4]
1 | C=CC(=O)N1C/C(=C\c2ccccc2)C(=O)C2(C1)C(c1ccccc1)C(c1ccccc1)NC21C(=O)Nc2ccccc21 (racemic) | 12.3 | 4.57 | 2.69 | 0.37
2 | C=CC(=O)N1C/C(=C\c2ccccc2C)C(=O)C2(C1)C(c1ccccc1C)C(c1ccccc1)NC21C(=O)Nc2ccccc21 (racemic) | 21.8 | 10.2 | 2.13 | 0.47
3 | C=CC(=O)N1C/C(=C\c2ccccc2OC)C(=O)C2(C1)C(c1ccccc1OC)C(c1ccccc1)NC21C(=O)Nc2ccccc21 (racemic) | 17.5 | 5.57 | 3.14 | 0.32
4 | C=CC(=O)N1C/C(=C\c2ccccc2Cl)C(=O)C2(C1)C(c1ccccc1Cl)C(c1ccccc1)NC21C(=O)Nc2ccccc21 (racemic) | 22.2 | 1.68 | 13.2 | 0.08
5 | C=CC(=O)N1C/C(=C\c2ccccc2F)C(=O)C2(C1)C(c1ccccc1F)C(c1ccccc1)NC21C(=O)Nc2ccccc21 (racemic) | 11.8 | 2.27 | 5.18 | 0.19
6 | C=CC(=O)N1C/C(=C\c2cccc([N+](=O)[O-])c2)C(=O)C2(C1)C(c1cccc([N+](=O)[O-])c1)C(c1ccccc1)NC21C(=O)Nc2ccccc21 (racemic) | 10.6 | 15.1 | 0.7 | 1.43
7 | C=CC(=O)N1C/C(=C\c2ccc(Cl)cc2Cl)C(=O)C2(C1)C(c1ccc(Cl)cc1Cl)C(c1ccccc1)NC21C(=O)Nc2ccccc21 (racemic) | 27.1 | 6.16 | 4.4 | 0.23
8 | C=CC(=O)N1C/C(=C\c2ccc(C)cc2)C(=O)C2(C1)C(c1ccc(C)cc1)C(c1ccccc1)NC21C(=O)Nc2ccccc21 (racemic) | 5.87 | 14.6 | 0.4 | 2.48
9 | C=CC(=O)N1C/C(=C\c2ccc(Cl)cc2)C(=O)C2(C1)C(c1ccc(Cl)cc1)C(c1ccccc1)NC21C(=O)Nc2ccccc21 (racemic) | 8.75 | 4.61 | 1.9 | 0.53
10 | C=CC(=O)N1C/C(=C\c2ccc(F)cc2)C(=O)C2(C1)C(c1ccc(F)cc1)C(c1ccccc1)NC21C(=O)Nc2ccccc21 (racemic) | 2.75 | 5.98 | 0.46 | 2.17
11 | C=CC(=O)N1C/C(=C\c2cccc3ccccc23)C(=O)C2(C1)C(c1cccc3ccccc13)C(c1ccccc1)NC21C(=O)Nc2ccccc21 (racemic) | 13.8 | 2.07 | 6.65 | 0.15
12 | O=C(C1CC(c2ccccc2)NC12C(=O)Nc1ccccc12)N1C/C(=C\c2ccccc2)C(=O)C2(C1)C(c1ccccc1)C(c1ccccc1)NC21C(=O)Nc2ccccc21 (racemic) | 26.3 | 20.8 | 1.27 | 0.79
13 | Cc1ccccc1/C=C1\CN(C(=O)C2CC(c3ccccc3)NC23C(=O)Nc2ccccc23)CC2(C1=O)C(c1ccccc1C)C(c1ccccc1)NC21C(=O)Nc2ccccc21 (racemic) | 29.1 | 30.5 | 0.95 | 1.05
14 | COc1ccccc1/C=C1\CN(C(=O)C2CC(c3ccccc3)NC23C(=O)Nc2ccccc23)CC2(C1=O)C(c1ccccc1OC)C(c1ccccc1)NC21C(=O)Nc2ccccc21 (racemic) | 32.1 | 9.15 | 3.51 | 0.28
15 | O=C(C1CC(c2ccccc2)NC12C(=O)Nc1ccccc12)N1C/C(=C\c2ccccc2Cl)C(=O)C2(C1)C(c1ccccc1Cl)C(c1ccccc1)NC21C(=O)Nc2ccccc21 (racemic) | 17.6 | 11.3 | 1.56 | 0.64
16 | O=C(C1CC(c2ccccc2)NC12C(=O)Nc1ccccc12)N1C/C(=C\c2ccccc2F)C(=O)C2(C1)C(c1ccccc1F)C(c1ccccc1)NC21C(=O)Nc2ccccc21 (racemic) | 35.9 | 7.45 | 4.81 | 0.21
17 | O=C(C1CC(c2ccccc2)NC12C(=O)Nc1ccccc12)N1C/C(=C\c2cccc([N+](=O)[O-])c2)C(=O)C2(C1)C(c1cccc([N+](=O)[O-])c1)C(c1ccccc1)NC21C(=O)Nc2ccccc21 (racemic) | 17.6 | 16.8 | 1.05 | 0.95
18 | O=C(C1CC(c2ccccc2)NC12C(=O)Nc1ccccc12)N1C/C(=C\c2ccc(Cl)cc2Cl)C(=O)C2(C1)C(c1ccc(Cl)cc1Cl)C(c1ccccc1)NC21C(=O)Nc2ccccc21 (racemic) | 26.3 | 8.61 | 3.06 | 0.33
19 | Cc1ccc(/C=C2\CN(C(=O)C3CC(c4ccccc4)NC34C(=O)Nc3ccccc34)CC3(C2=O)C(c2ccc(C)cc2)C(c2ccccc2)NC32C(=O)Nc3ccccc32)cc1 (racemic) | 19.8 | 20.2 | 0.98 | 1.02
20 | O=C(C1CC(c2ccccc2)NC12C(=O)Nc1ccccc12)N1C/C(=C\c2ccc(Cl)cc2)C(=O)C2(C1)C(c1ccc(Cl)cc1)C(c1ccccc1)NC21C(=O)Nc2ccccc21 (racemic) | 27.8 | 12.3 | 2.25 | 0.44
21 | O=C(C1CC(c2ccccc2)NC12C(=O)Nc1ccccc12)N1C/C(=C\c2ccc(F)cc2)C(=O)C2(C1)C(c1ccc(F)cc1)C(c1ccccc1)NC21C(=O)Nc2ccccc21 (racemic) | 14.4 | 21.9 | 0.66 | 1.51
22 | O=C(C1CC(c2ccccc2)NC12C(=O)Nc1ccccc12)N1C/C(=C\c2cccc3ccccc23)C(=O)C2(C1)C(c1cccc3ccccc13)C(c1ccccc1)NC21C(=O)Nc2ccccc21 (racemic) | 19.2 | 9.24 | 2.08 | 0.48
